In PubChem BioAssay (NCI):
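The concentration for 50% growth inhibition is given as GI50. TGI: concentration producing complete growth inhibition.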

Columns and labels:
Assay in all cases: NCI-60 cell line screen, 384-well format
786-0 renal = system: 786-0 renal
A498 renal = system: A498 renal
A549 NSCLC = system: A549 NSCLC
ACHN renal = system: ACHN renal
BT-549 breast = system: BT-549 breast
CAKI-1 renal = system: CAKI-1 renal
COLO 205 colon = system: COLO 205 colon
DU-145 prostate = system: DU-145 prostate
EKVX NSCLC = system: EKVX NSCLC
HCC-2998 colon = system: HCC-2998 colon
HCT-116 colon = system: HCT-116 colon
HCT-15 colon = system: HCT-15 colon
HL-60(TB) leukemia = system: HL-60(TB) leukemia
HOP-62 NSCLC = system: HOP-62 NSCLC
HOP-92 NSCLC = system: HOP-92 NSCLC
HS 578T breast = system: HS 578T breast
HT29 colon = system: HT29 colon
IGROV1 ovarian = system: IGROV1 ovarian
KM12 colon = system: KM12 colon
LOX IMVI melanoma = system: LOX IMVI melanoma
M14 melanoma = system: M14 melanoma
MALME-3M melanoma = system: MALME-3M melanoma
MCF7 breast = system: MCF7 breast
MDA-MB-231 breast = system: MDA-MB-231 breast
MDA-MB-435 melanoma = system: MDA-MB-435 melanoma
MDA-MB-468 breast = system: MDA-MB-468 breast
MOLT-4 leukemia = system: MOLT-4 leukemia
NCI-H226 lung = system: NCI-H226 lung
NCI-H23 lung = system: NCI-H23 lung
NCI-H322M lung = system: NCI-H322M lung
NCI-H460 NSCLC = system: NCI-H460 NSCLC
NCI-H522 lung = system: NCI-H522 lung
NCI/ADR-RES ovarian = system: NCI/ADR-RES ovarian
OVCAR-3 ovarian = system: OVCAR-3 ovarian
OVCAR-4 ovarian = system: OVCAR-4 ovarian
OVCAR-5 ovarian = system: OVCAR-5 ovarian
OVCAR-8 ovarian = system: OVCAR-8 ovarian
PC-3 prostate = system: PC-3 prostate
RPMI-8226 leukemia = system: RPMI-8226 leukemia
RXF 393 renal = system: RXF 393 renal
SF-268 CNS = system: SF-268 CNS
SF-295 CNS = system: SF-295 CNS
SF-539 CNS = system: SF-539 CNS
SK-MEL-28 melanoma = system: SK-MEL-28 melanoma
SK-MEL-5 melanoma = system: SK-MEL-5 melanoma
SK-OV-3 ovarian = system: SK-OV-3 ovarian
SN12C renal = system: SN12C renal
SNB-19 CNS = system: SNB-19 CNS
SNB-75 CNS = system: SNB-75 CNS
SR leukemia = system: SR leukemia
SW-620 colon = system: SW-620 colon
T-47D breast = system: T-47D breast
TK-10 renal = system: TK-10 renal
U251 glioblastoma = system: U251 glioblastoma
UACC-257 melanoma = system: UACC-257 melanoma
UACC-62 melanoma = system: UACC-62 melanoma
UO-31 renal = system: UO-31 renal

**Q.** How did the GI50 (786-0 renal) turn out when `COc1cc2nccc(Oc3ccc(NC(=O)Nc4cc(C)on4)c(Cl)c3)c2cc1OC` was run?
**A.** 3.79 µM

**Q.** And the TGI (786-0 renal)?
**A.** 12 µM

**Q.** What about the GI50 (A498 renal) of the same compound?
**A.** 5.6 µM

**Q.** And the TGI (A498 renal)?
**A.** 21 µM

**Q.** What about the GI50 (A549 NSCLC) of the same compound?
**A.** 3.25 µM

**Q.** What about the TGI (A549 NSCLC) of the same compound?
**A.** 11 µM

**Q.** What about the GI50 (ACHN renal) of the same compound?
**A.** 3.53 µM

**Q.** What about the TGI (ACHN renal) of the same compound?
**A.** 11.6 µM

**Q.** And the GI50 (BT-549 breast)?
**A.** 3.2 µM

**Q.** What about the TGI (BT-549 breast) of the same compound?
**A.** 7.18 µM

**Q.** And the GI50 (CAKI-1 renal)?
**A.** 2.67 µM

**Q.** And the TGI (CAKI-1 renal)?
**A.** 6.87 µM

**Q.** And the GI50 (COLO 205 colon)?
**A.** 2.59 µM

**Q.** And the TGI (COLO 205 colon)?
**A.** 8.26 µM

**Q.** What about the GI50 (DU-145 prostate) of the same compound?
**A.** 5.63 µM

**Q.** What about the TGI (DU-145 prostate) of the same compound?
**A.** 81.3 µM

**Q.** And the GI50 (EKVX NSCLC)?
**A.** 4.4 µM

**Q.** And the TGI (EKVX NSCLC)?
**A.** 20.9 µM

**Q.** And the GI50 (HCC-2998 colon)?
**A.** 23.9 µM

**Q.** And the TGI (HCC-2998 colon)?
**A.** 91.9 µM

**Q.** What about the GI50 (HCT-116 colon) of the same compound?
**A.** 3.51 µM

**Q.** And the TGI (HCT-116 colon)?
**A.** 11.5 µM

**Q.** What about the GI50 (HCT-15 colon) of the same compound?
**A.** 4.16 µM

**Q.** And the TGI (HCT-15 colon)?
**A.** > 100 µM

**Q.** And the GI50 (HL-60(TB) leukemia)?
**A.** 2.87 µM

**Q.** What about the TGI (HL-60(TB) leukemia) of the same compound?
**A.** 5.3 µM

**Q.** What about the GI50 (HOP-62 NSCLC) of the same compound?
**A.** 9.77 µM

**Q.** What about the TGI (HOP-62 NSCLC) of the same compound?
**A.** > 100 µM

**Q.** What about the GI50 (HOP-92 NSCLC) of the same compound?
**A.** 1.7 µM

**Q.** What about the TGI (HOP-92 NSCLC) of the same compound?
**A.** 3.33 µM

**Q.** What about the GI50 (HS 578T breast) of the same compound?
**A.** 2.08 µM

**Q.** What about the TGI (HS 578T breast) of the same compound?
**A.** 7.41 µM

**Q.** And the GI50 (HT29 colon)?
**A.** 3.17 µM

**Q.** And the TGI (HT29 colon)?
**A.** 12.1 µM

**Q.** What about the GI50 (IGROV1 ovarian) of the same compound?
**A.** 2.22 µM

**Q.** And the TGI (IGROV1 ovarian)?
**A.** 5.21 µM

**Q.** And the GI50 (KM12 colon)?
**A.** 0.346 µM

**Q.** What about the TGI (KM12 colon) of the same compound?
**A.** > 100 µM

**Q.** And the GI50 (LOX IMVI melanoma)?
**A.** 4.08 µM

**Q.** What about the TGI (LOX IMVI melanoma) of the same compound?
**A.** 11 µM

**Q.** What about the GI50 (M14 melanoma) of the same compound?
**A.** 3.72 µM

**Q.** What about the TGI (M14 melanoma) of the same compound?
**A.** 15.3 µM

**Q.** And the GI50 (MALME-3M melanoma)?
**A.** 1.81 µM

**Q.** And the TGI (MALME-3M melanoma)?
**A.** 4.39 µM

**Q.** What about the GI50 (MCF7 breast) of the same compound?
**A.** 4.99 µM

**Q.** What about the TGI (MCF7 breast) of the same compound?
**A.** 31.6 µM

**Q.** And the GI50 (MDA-MB-231 breast)?
**A.** 2.38 µM

**Q.** What about the TGI (MDA-MB-231 breast) of the same compound?
**A.** 6.83 µM

**Q.** And the GI50 (MDA-MB-435 melanoma)?
**A.** 7.46 µM

**Q.** What about the TGI (MDA-MB-435 melanoma) of the same compound?
**A.** 73.4 µM

**Q.** What about the GI50 (MDA-MB-468 breast) of the same compound?
**A.** 3.51 µM

**Q.** And the TGI (MDA-MB-468 breast)?
**A.** 8.5 µM

**Q.** What about the GI50 (MOLT-4 leukemia) of the same compound?
**A.** 1.45 µM

**Q.** And the TGI (MOLT-4 leukemia)?
**A.** 2.99 µM

**Q.** What about the GI50 (NCI-H226 lung) of the same compound?
**A.** 0.906 µM

**Q.** And the TGI (NCI-H226 lung)?
**A.** 3.39 µM

**Q.** What about the GI50 (NCI-H23 lung) of the same compound?
**A.** 2.65 µM

**Q.** What about the TGI (NCI-H23 lung) of the same compound?
**A.** 7.77 µM

**Q.** What about the GI50 (NCI-H322M lung) of the same compound?
**A.** 3.91 µM

**Q.** What about the TGI (NCI-H322M lung) of the same compound?
**A.** 13.9 µM

**Q.** And the GI50 (NCI-H460 NSCLC)?
**A.** 4.58 µM

**Q.** And the TGI (NCI-H460 NSCLC)?
**A.** 19 µM

**Q.** What about the GI50 (NCI-H522 lung) of the same compound?
**A.** 2.51 µM

**Q.** What about the TGI (NCI-H522 lung) of the same compound?
**A.** 6.54 µM

**Q.** And the GI50 (NCI/ADR-RES ovarian)?
**A.** 2.9 µM

**Q.** And the TGI (NCI/ADR-RES ovarian)?
**A.** 8.81 µM

**Q.** What about the GI50 (OVCAR-3 ovarian) of the same compound?
**A.** 5.25 µM

**Q.** And the TGI (OVCAR-3 ovarian)?
**A.** 20.1 µM

**Q.** What about the GI50 (OVCAR-4 ovarian) of the same compound?
**A.** 5.71 µM

**Q.** And the TGI (OVCAR-4 ovarian)?
**A.** 25 µM

**Q.** What about the GI50 (OVCAR-5 ovarian) of the same compound?
**A.** 4.4 µM

**Q.** What about the TGI (OVCAR-5 ovarian) of the same compound?
**A.** 21.2 µM

**Q.** And the GI50 (OVCAR-8 ovarian)?
**A.** 4.45 µM

**Q.** And the TGI (OVCAR-8 ovarian)?
**A.** 41 µM

**Q.** What about the GI50 (PC-3 prostate) of the same compound?
**A.** 6.29 µM

**Q.** What about the TGI (PC-3 prostate) of the same compound?
**A.** > 100 µM

**Q.** What about the GI50 (RPMI-8226 leukemia) of the same compound?
**A.** 3.79 µM

**Q.** What about the TGI (RPMI-8226 leukemia) of the same compound?
**A.** 15.1 µM

**Q.** What about the GI50 (RXF 393 renal) of the same compound?
**A.** 1.65 µM

**Q.** And the TGI (RXF 393 renal)?
**A.** 4.28 µM

**Q.** And the GI50 (SF-268 CNS)?
**A.** 3.06 µM

**Q.** And the TGI (SF-268 CNS)?
**A.** 8.86 µM

**Q.** What about the GI50 (SF-295 CNS) of the same compound?
**A.** 3.18 µM

**Q.** What about the TGI (SF-295 CNS) of the same compound?
**A.** 11.5 µM

**Q.** And the GI50 (SF-539 CNS)?
**A.** 1.24 µM

**Q.** And the TGI (SF-539 CNS)?
**A.** 2.95 µM

**Q.** What about the GI50 (SK-MEL-28 melanoma) of the same compound?
**A.** 4.26 µM

**Q.** What about the TGI (SK-MEL-28 melanoma) of the same compound?
**A.** 21 µM

**Q.** And the GI50 (SK-MEL-5 melanoma)?
**A.** 3.35 µM

**Q.** And the TGI (SK-MEL-5 melanoma)?
**A.** 11.8 µM

**Q.** And the GI50 (SK-OV-3 ovarian)?
**A.** 6.78 µM

**Q.** And the TGI (SK-OV-3 ovarian)?
**A.** 67.1 µM

**Q.** And the GI50 (SN12C renal)?
**A.** 2.95 µM

**Q.** And the TGI (SN12C renal)?
**A.** 9.88 µM

**Q.** And the GI50 (SNB-19 CNS)?
**A.** 16.6 µM

**Q.** What about the TGI (SNB-19 CNS) of the same compound?
**A.** > 100 µM

**Q.** What about the GI50 (SNB-75 CNS) of the same compound?
**A.** 2.53 µM

**Q.** And the TGI (SNB-75 CNS)?
**A.** 6.7 µM

**Q.** What about the GI50 (SR leukemia) of the same compound?
**A.** 3.73 µM

**Q.** What about the TGI (SR leukemia) of the same compound?
**A.** 5.34 µM

**Q.** What about the GI50 (SW-620 colon) of the same compound?
**A.** 2.82 µM

**Q.** What about the TGI (SW-620 colon) of the same compound?
**A.** 7.18 µM

**Q.** What about the GI50 (T-47D breast) of the same compound?
**A.** 4.17 µM

**Q.** And the TGI (T-47D breast)?
**A.** 23.1 µM

**Q.** And the GI50 (TK-10 renal)?
**A.** 19.9 µM

**Q.** And the TGI (TK-10 renal)?
**A.** > 100 µM

**Q.** And the GI50 (U251 glioblastoma)?
**A.** 9.48 µM

**Q.** And the TGI (U251 glioblastoma)?
**A.** > 100 µM

**Q.** What about the GI50 (UACC-257 melanoma) of the same compound?
**A.** 11.9 µM

**Q.** What about the TGI (UACC-257 melanoma) of the same compound?
**A.** 30.3 µM

**Q.** What about the GI50 (UACC-62 melanoma) of the same compound?
**A.** 2.9 µM

**Q.** And the TGI (UACC-62 melanoma)?
**A.** 13.5 µM

**Q.** And the GI50 (UO-31 renal)?
**A.** 2.75 µM

**Q.** What about the TGI (UO-31 renal) of the same compound?
**A.** 5.98 µM
